Test results as given in US20030054535A1, “Endoglucanase mutants and mutant hydrolytic depolymerizing enzymes and uses thereof” (priority 1999, published 2003).
Values joined by “and” are separate entries in the source; they are usually repeats but may differ in a detail not shown here. Equal entries are not always repeated.

Columns and labels:
Assay type in all cases: biochemical
[1] = molecular target: T1, Acidothermus cellulolyticus EI endoglucanase (Cel5A) catalytic domain variant Y82R, SEQ ID NO:2 (Acidothermus cellulolyticus, UniProt P54583, Y123R); assay: Michaelis-Menten kinetics of cellotriose hydrolysis (cellobiose release), EIY82R; conditions: relative to native enzyme
T1 construct: the protein was genetically truncated near the beginning of the linker peptide; made in house; host or cells: E. coli XL1-blue
Description: (§1) Each assay mixture was pre-incubated at 50 degrees C. for 10 min. prior to the addition of 0.00272 micromolar (0. 1092 microgram/mL) enzyme, which was also made up in 5 mM acetate buffer with 10 microgram/mL BSA. The final assay volume was 0.1 mL.
(§2) At set-time intervals, an aliquot of the reaction mixture was pulled and immediately analyzed for the release of cellobiose using a Dionex DX300 chromatography system and a Dionex PAD2 pulsed amperometric detector having a gold working electrode. The response of this detector was optimized for the detection of carbohydrates using a waveform defined by the following time and potential settings: t1=420 msec.; EI=+0.05 V; t2=180 msec.; E2=+0.75 V; t3=360 msec.; and E3=−0.15 V. Separation of the reaction products, from the substrate, was achieved on a Dionex CarboPac PA-1 analytical (4×250 mm) column equipped with CarboPac PA-1 ([…], 500 mM sodium hydroxide eluent, and a flow rate of 1.5 mL/min. The amount of cellobiose present for each time-point-sample was quantified by comparing the area of the cellobiose peak against a linear calibration curve. The kinetic constants were determined with a double-reciprocal-plot, where the reciprocal of the rate of cellobiose produced was plotted as a function of the inverse of the substrate concentration.
(§3) Michaelis-Menten kinetics of the mutant EI enzymes and the native enzyme were determined.

[2] = molecular target: T2, Acidothermus cellulolyticus EI endoglucanase (Cel5A) catalytic domain variant W42R, SEQ ID NO:1 (Acidothermus cellulolyticus, UniProt P54583, W83R); assay: Michaelis-Menten kinetics of cellotriose hydrolysis (cellobiose release), EIW42R; conditions: relative to native enzyme
T2 construct: the protein was genetically truncated near the beginning of the linker peptide; made in house; host or cells: E. coli XL1-blue
Description: as §1, §2, §3

[3] = molecular target: T3, Acidothermus cellulolyticus EI endoglucanase (Cel5A) catalytic domain variant Y245G, SEQ ID NO:3 (Acidothermus cellulolyticus, UniProt P54583, Y286G); assay: Inhibition by cellobiose of hydrolysis of 4-methylumbelliferyl-β-D-cellobioside (MUC), Y245G mutant
T3 construct: the mutant and wild type Cel5A catalytic domains were purified using the purification methods described above; made in house; host or cells: E. coli XL1-blue
Description: (§4) The enzymes (0.682 ng) were incubated for 30 min with the substrate at each of two concentrations (4 and 20 μM), in the presence of D-cellobiose (Sigma, St. Louis) )at concentrations ranging from 0 to 5 mM for the wild type catalytic domain, and from 0 to 50 mM for the Y245G mutant. At the end of the incubation period, the reaction in each 1-mL assay mixture was terminated by addition of 2 mL of 0.5 M sodium carbonate, pH 10.0. The extent of hydrolysis was then determined from the fluorescence of the ionized product, 4-methylumbelliferone, as measured in a SPEX FLUOROLOG spectrofluorometer with excitation wavelength at 380 nm and emission wavelength at 455 nm. These studies established that under these conditions, […]. Inhibition constants were then determined by means of Dixon plots of reciprocal velocity versus inhibitor concentration (Segel, 1975).
(§5) The mutant Cel5A enzyme, Y245G, was generated by PCR mutagenesis, and the mutant and wild type Cel5A catalytic domains were purified using the purification methods described above. […] For this reason, the molar extinction coefficients of the recombinant enzymes were calculated by considering the specific change in amino acid composition.

[4] = molecular target: T4, Acidothermus cellulolyticus EI endoglucanase (Cel5A) catalytic domain, wild type (native), SEQ ID NO:3 of U.S. Pat. No. 5,536,655 (Acidothermus cellulolyticus, UniProt P54583); assay: Inhibition by cellobiose of hydrolysis of 4-methylumbelliferyl-β-D-cellobioside (MUC), wild type; conditions: Ki for inhibition by cellobiose, substrate MUC 4 and 20 μM, 30 min, cellobiose 0 to 5 mM, Dixon plots
T4 construct: the mutant and wild type Cel5A catalytic domains were purified using the purification methods described above; made in house; host or cells: E. coli XL1-blue
Description: as §4, §5

T3 sequence (P54583 42-399 Y286G): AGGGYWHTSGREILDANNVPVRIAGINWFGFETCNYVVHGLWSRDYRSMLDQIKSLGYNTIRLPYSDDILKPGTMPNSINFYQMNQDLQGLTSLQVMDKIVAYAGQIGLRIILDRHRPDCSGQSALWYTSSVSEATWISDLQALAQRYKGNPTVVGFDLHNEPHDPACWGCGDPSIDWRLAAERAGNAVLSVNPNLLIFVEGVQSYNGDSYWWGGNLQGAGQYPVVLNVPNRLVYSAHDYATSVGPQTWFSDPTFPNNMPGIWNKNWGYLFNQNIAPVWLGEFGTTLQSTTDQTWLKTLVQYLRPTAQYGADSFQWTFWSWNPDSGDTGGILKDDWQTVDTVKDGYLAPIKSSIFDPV
T4 sequence (P54583 42-400): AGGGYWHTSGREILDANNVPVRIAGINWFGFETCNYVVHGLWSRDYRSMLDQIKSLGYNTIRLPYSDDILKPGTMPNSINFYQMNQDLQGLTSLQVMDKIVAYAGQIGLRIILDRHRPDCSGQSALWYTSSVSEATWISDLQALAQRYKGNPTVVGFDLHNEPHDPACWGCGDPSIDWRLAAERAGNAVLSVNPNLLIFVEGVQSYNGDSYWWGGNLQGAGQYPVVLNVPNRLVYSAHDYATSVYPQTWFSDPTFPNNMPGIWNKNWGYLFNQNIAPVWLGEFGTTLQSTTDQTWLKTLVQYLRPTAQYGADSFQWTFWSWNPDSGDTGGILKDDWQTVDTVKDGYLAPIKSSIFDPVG
T1 sequence (P54583 42-399 Y123R): as the sequence (P54583 42-399 Y286G) above, with Y82R, G245Y counted along it
T2 sequence (P54583 42-399 W83R): as the sequence (P54583 42-399 Y286G) above, with W42R, G245Y counted along it

**Q.** With `OC[C@H]1O[C@@H](O[C@H]2[C@H](O)[C@@H](O)[C@H](O[C@H]3[C@H](O)[C@@H](O)C(O)O[C@@H]3CO)O[C@@H]2CO)[C@H](O)[C@@H](O)[C@@H]1O` (some centres unmarked) [cellotriose] as the compound, how does the “Vmax, % higher than that of the native enzyme” value [1] read?
**A.** ~75%

**Q.** What about the “Vmax, % higher than that of the native enzyme” value [2] of the same compound?
**A.** about 15%

**Q.** What does the source list for `OC[C@H]1O[C@@H](O[C@H]2[C@H](O)[C@@H](O)C(O)O[C@@H]2CO)[C@H](O)[C@@H](O)[C@@H]1O` (stereo partly drawn) [cellobiose, D-cellobiose]?
**A.** Ki ([3]; Ki for inhibition by cellobiose, substrate MUC 4 and 20 μM, 30 min, cellobiose 0 to 50 mM, Dixon plots): 29.7 mM and 30 mM; decrease in apparent binding energy of cellobiose versus native enzyme ([3]; from increase in Ki, Y245G relative to wild type): 1.7 kcal/mol and ~1.5 kcal/mol; Ki [4]: 1.88 mM and 2 mM
